Patent publication US12377076B2, “Compounds for treating lymphoma or a T-cell malignant disease” (Purdue Pharma L.P., priority 2018, dated 2025)
Values joined by “and” are separate entries in the source; they are usually repeats but may differ in a detail not shown here. Identical values can stand only once. “Also recorded” adds a separate entry of the source.

Tested on: patients with relapsed/refractory hematologic malignancies
Assay: Phase 1 dose escalation trial: safety, TEAEs, DLTs, MTD
Assay type: in vivo, human
Description: A phase 1 trial was carried out including a dose escalation study to investigate the safety, pharmacokinetic (PK) profiles and efficacy of tinostamustine (EDO-S101) in relapsed/refractory hematologic malignancies.
The patient had relapsed/refractory hematologic malignancies for which there are no available therapies.
The assessment of dose-limiting toxicities (DLTs) was based on cycle 1 events alone. Toxicities were assessed regarding type and severity using the National Cancer Institute (NCI) Common Terminology Criteria for Adverse Events (CTCAE) version 4.03, June 2010. Toxicity data were collected for all patients throughout their time on study. Infusion site reactions were assessed using the Phlebitis Scale developed by the Infusion Nurses Society (2011).
DLTs, which were at least possibly related to study drug, were defined as: • Any Grade 3 or 4 non-hematologic toxicity (excluding alopecia and easily correctable electrolyte abnormalities); • Nausea, vomiting or diarrhoea that persists beyond 10 days despite aggressive symptomatic treatment; • Grade 4 neutropenia or thrombocytopenia lasting for 7 days or more; • Any grade 2 or more toxicity, but persist for over 3 weeks; and • Any toxicity resulting in a delay of the next dose administration (cycle 2 day 1≥14).
To ensure patients' safety, the stopping rules were implemented to the dose escalation stage of the study.
Other safety assessments included physical examinations, Eastern Cooperative Oncology Group (ECOG) performance status determinations, electrocardiograms (ECGs), pregnancy testing for women of childbearing potential, documentation of treatment-emergent adverse events (TEAEs), clinical laboratory evaluations including haematology, blood chemistry and urinalysis, vital signs, and documentation of concomitant medication usage.
If there is no DLT observed in any of these subjects, the trial proceeds to enroll additional subjects into the next higher dose cohort. If one subject develops a DLT at a specific dose, an additional three subjects are enrolled into that same dose cohort.

[1] = all cohorts administered over 30 or 45 minutes
[2] = clinical chemistry TEAE, All Patients (N = 46)
[3] = clinical chemistry TEAE, all patients
[4] = doses of 20 to 80 mg/m^2, cohorts 20/60 to 120/60
[5] = doses of 100 or 120 mg/m^2, cohorts 20/60 to 120/60
[6] = patients with normal or grade 1 or 2 values at baseline

With Cn1c(CCCCCCC(=O)NO)nc2cc(N(CCCl)CCCl)ccc21 [tinostamustine] the “DLTs in cycle 1” value (100 mg/m^2 over 60 minutes) was “no dose-limiting toxicities”, the “patients with Grade 3 and 4 thrombocytopenia in C2 and C3 leading to withdrawal” value (100 mg/m^2 over 60 minutes) was “three” and the “Grade 3 TEAE” value (Patients (N = 46)) was 28 (60.8). The “Grade 4 TEAE” value (Patients (N = 46)) was 13 (28.2), the Infusion site phlebitis (Patients (N = 46)) was 1 (2.1) and the SAE (Patients (N = 46)) was 8 (17.4). The “TEAE leading to early study discontinuation” value (Patients (N = 46)) was 11 (23.9), the “TEAE with outcome of death” value (Patients (N = 46)) was 0 (0) and the TEAE (Patients (N = 46), number (percent)) was 42 (91.3). For the same compound, the “Treatment-related TEAE” value (Patients (N = 46), relationship possible, probable or definite) was 38 (82.6), the incidence of leukopenia (administered over 30 or 45 minutes) was 16% and the incidence of leukopenia (administered over 60 minutes) was 27%. The incidence of thrombocytopenia (administered over 60 minutes) was 58%, the “maximum tolerated dose (MTD)” value (administered over 60 minutes, subset of patients with MM (N=11)) was 100 mg/m^2 and the SAE dyspnea (all 46 patients) was 2%. For the same compound, the SAE febrile neutropenia (all 46 patients) was 2%, the SAE hypersensitivity (all 46 patients) was 2% and the SAE osteomyelitis (all 46 patients) was 2%. The SAE pleural effusion (all 46 patients) was 2%, the SAE pneumonia (all 46 patients) was 2% and the SAE sepsis (all 46 patients) was 2%. For the same compound, the “TEAE with an outcome of death (grade 5 TEAE)” value (all 46 patients) was “No patient”, the “anaphylactic reaction leading to study drug discontinuation” value (all 46 patients) was 2% and the “blood and lymphatic system disorders” value (all 46 patients) was 54%. For the same compound, the “discontinuation for adverse events (AE)” value (all 46 patients) was 29%, the “febrile neutropenia leading to study drug discontinuation” value (all 46 patients) was 2% and the “gastrointestinal (GI) disorders” value (all 46 patients) was 52%. For the same compound, the “general disorders and administration site conditions” value (all 46 patients) was 50%, the “grade 3/4 anemia” value (all 46 patients) was 22% and the “grade 3/4 leukopenia/WBC decreased” value (all 46 patients) was 15% and 16%. For the same compound, the “grade 3/4 lymphopenia” value (all 46 patients) was 8.6%, the “grade 3/4 neutropenia/neutrophil count decreased” value (all 46 patients) was 29% and the “grade 3/4 thrombocytopenia” value (all 46 patients) was 39% and 40%. For the same compound, the “hypersensitivity leading to study drug discontinuation” value (all 46 patients) was 2%, the “incidence of all other TEAEs” value (all 46 patients) was under 20% and the incidence of nausea (all 46 patients) was 29%. For the same compound, the infusion-site phlebitis events (all 46 patients) was 2%, the “neutropenia leading to study drug discontinuation” value (all 46 patients) was 4% and the “patients who discontinued study drug because of a TEAE” value (all 46 patients) was 23%. The “patients with a grade 3 or 4 TEAE” value (all 46 patients) was 63%, the “patients with at least 1 grade 3 TEAE” value (all 46 patients) was 60% and the “patients with at least 1 grade 4 TEAE” value (all 46 patients) was 28%. The “patients with at least 1 serious adverse event (SAE)” value (all 46 patients) was 18%, the “patients with at least one TEAE” value (all 46 patients) was 91% and the “patients with at least one study drug-related TEAE” value (all 46 patients) was 38 patients. For the same compound, the “pleural effusion leading to study drug discontinuation” value (all 46 patients) was 2%, the “pruritus leading to study drug discontinuation” value (all 46 patients) was 2% and the “thrombocytopenia leading to study drug discontinuation” value (all 46 patients) was 15%. The incidence of anaemia (all 46 patients, any grade) was 39%, the “incidence of leukopenia/WBC decreased” value (all 46 patients, any grade) was 21% and 22% and the “incidence of neutropenia/neutrophil count decreased” value (all 46 patients, any grade) was 29% and 28%. The “incidence of thrombocytopenia/platelet count decreased” value (all 46 patients, any grade) was 52%, the SAE thrombocytopenia (all 46 patients, grade 3, HM120/60 cohort) was 2% and the incidence of anaemia [1] was 37%. For the same compound, the incidence of thrombocytopenia [1] was 47%, the “thrombocytopenia leading to study drug and/or study discontinuation” value (all patients) was 19% and the “Blood alkaline phosphatase increased” value [2] was 1 (2.1) n (%). For the same compound, the Blood magnesium decreased [2] was 1 (2.1) n (%), the Blood potassium decreased/hypokalaemia [2] was 5 (10.8) n (%) and the C-reactive protein increased [2] was 2 (4.3) n (%). For the same compound, the Hyperglycaemia [2] was 1 (2.1) n (%), the Hyperuricemia [2] was 1 (2.1) n (%) and the blood creatinine increased [2] was 4 (8.6) n (%). The C-reactive protein increased [3] was 4%, the blood creatinine increased [3] was 9% and the blood potassium decreased/hypokalemia [3] was 11%. The “grade 3 hyperuricemia” value (considered unrelated to study drug) was 2%, the DLTs that occurred (dose cohort of 120/60) was “Grade 4 thrombocytopenia lasting for 7 days or more; also recorded: Prolonged thrombocytopenia/toxicity resulting in the delay of the next dose administration” and the “incidence of grade 3 or 4 anaemia” value (doses of 20 to 80 mg/m^2) was 8%. The incidence of anaemia [4] was 25%, the “incidence of grade 3/4 thrombocytopenia” value [4] was 8% and the incidence of leukopenia [4] was 17%. For the same compound, the incidence of neutropenia [4] was 25%, the “incidence of grade 3 or 4 anaemia” value (doses of 100 or 120 mg/m^2) was 36% and the incidence of anaemia [5] was 64%. For the same compound, the “incidence of grade 3/4 thrombocytopenia” value [5] was 71%, the incidence of leukopenia [5] was 36% and the incidence of neutropenia [5] was 50%. For the same compound, the haematological nadir occurs (human, in vivo, intravenous) was 17-23 day, the “patients who discontinued study drug and/or the study because of neutropenia” value (in vivo) was “Two” and the “patients who discontinued study drug or the study because of leukopenia” value (in vivo) was “No patient”. The “patients with treatment-emergent QTcF interval >500 msec” value (in vivo) was “One”, the “treatment-emergent ECG abnormality indicated to be clinically significant” value (in vivo) was “No patient” and the MTD (lymphoma and multiple myeloma patients) was 100 mg/m^2. For the same compound, the MTD (lymphoma subpopulation) was 100 mg/m^2, the MAD (lymphoma subpopulation, administered over 1 hour) was 120 mg/m^2 and the “patients experiencing DLTs” value (lymphoma, 120 mg/m^2 over 1 hour) was “Two out of six”. The QTcF interval (one subject, MM 80/45 cohort, discontinuation visit three weeks after only dose, screening 423 msec) was 677 ms, the “incidence of cardiac disorders” value (overall) was 11% and the “study drug-related cardiac disorder, grade 1 palpitations” value (overall) was 2%. For the same compound, the tachycardia (overall) was 4%, the “treatment-emergent grade 4 clinical chemistry abnormality, hyperuricemia” value [6] was 2% and the “treatment-emergent shift to grade 3 aspartate aminotransferase increased” value [6] was 2%. The “treatment-emergent shift to grade 3 hypoalbuminemia” value [6] was 2% and the incidence of neutropenia (shorter infusion times) was 16%.
